#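 Each compound was tested at five concentrations against cells in 96-well plates for 48 hours. At the GI50, growth is halved. Definition used: TGI = concentration required for complete inhibition of growth.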
# Experiments:
# Experiment in all cases: inhibition of tumour cell growth, NCI panel, 48 h
# [1] = system: 786-0 renal
# [2] = system: A498 renal
# [3] = system: A549 NSCLC
# [4] = system: ACHN renal
# [5] = system: BT-549 breast
# [6] = system: CAKI-1 renal
# [7] = system: CCRF-CEM leukemia
# [8] = system: COLO 205 colon
# [9] = system: DU-145 prostate
# [10] = system: EKVX NSCLC
# [11] = system: HCC-2998 colon
# [12] = system: HCT-116 colon
# [13] = system: HCT-15 colon
# [14] = system: HL-60(TB) leukemia
# [15] = system: HOP-62 NSCLC
# [16] = system: HOP-92 NSCLC
# [17] = system: HS 578T breast
# [18] = system: HT29 colon
# [19] = system: IGROV1 ovarian
# [20] = system: K-562 leukemia
# [21] = system: KM12 colon
# [22] = system: LOX IMVI melanoma
# [23] = system: M14 melanoma
# [24] = system: MALME-3M melanoma
# [25] = system: MCF7 breast
# [26] = system: MDA-MB-231 breast
# [27] = system: MDA-MB-435
# [28] = system: MDA-MB-468 breast
# [29] = system: MOLT-4 leukemia
# [30] = system: NCI-H226 lung
# [31] = system: NCI-H23 lung
# [32] = system: NCI-H460 lung
# [33] = system: NCI-H522 lung
# [34] = system: NCI/ADR-RES ovarian
# [35] = system: OVCAR-3 ovarian
# [36] = system: OVCAR-4 ovarian
# [37] = system: OVCAR-5 ovarian
# [38] = system: OVCAR-8 ovarian
# [39] = system: PC-3 prostate
# [40] = system: RPMI-8226 leukemia
# [41] = system: RXF 393 renal
# [42] = system: SF-268 CNS
# [43] = system: SF-295 CNS
# [44] = system: SF-539 CNS
# [45] = system: SK-MEL-2 melanoma
# [46] = system: SK-MEL-28 melanoma
# [47] = system: SK-MEL-5 melanoma
# [48] = system: SK-OV-3 ovarian
# [49] = system: SN12C renal
# [50] = system: SNB-19 CNS
# [51] = system: SNB-75 CNS
# [52] = system: SR leukemia
# [53] = system: SW-620 colon
# [54] = system: T-47D breast
# [55] = system: TK-10 renal
# [56] = system: U251 CNS
# [57] = system: UACC-257 melanoma
# [58] = system: UACC-62 melanoma
# [59] = system: UO-31 renal
smiles,measurement,setting,value
C#C[C@]1(O)CC[C@H]2[C@@H]3CC=C4c5sc(Nc6cc(C)cc(C)n6)nc5CC[C@]4(C)[C@H]3CC[C@@]21C,GI50,[1],> 100 µM
same,TGI,[1],> 100 µM
same,GI50,[2],> 100 µM
same,TGI,[2],> 100 µM
same,GI50,[3],> 100 µM
same,TGI,[3],> 100 µM
same,GI50,[4],> 100 µM
same,TGI,[4],> 100 µM
same,GI50,[5],> 100 µM
same,TGI,[5],> 100 µM
same,GI50,[6],> 100 µM
same,TGI,[6],> 100 µM
same,GI50,[7],> 100 µM
same,TGI,[7],> 100 µM
same,GI50,[8],> 100 µM
same,TGI,[8],> 100 µM
same,GI50,[9],> 100 µM
same,TGI,[9],> 100 µM
same,GI50,[10],> 100 µM
same,TGI,[10],> 100 µM
same,GI50,[11],> 100 µM
same,TGI,[11],> 100 µM
same,GI50,[12],> 100 µM
same,TGI,[12],> 100 µM
same,GI50,[13],> 100 µM
same,TGI,[13],> 100 µM
same,GI50,[14],> 100 µM
same,TGI,[14],> 100 µM
same,GI50,[15],> 100 µM
same,TGI,[15],> 100 µM
same,GI50,[16],> 100 µM
same,TGI,[16],> 100 µM
same,GI50,[17],> 100 µM
same,TGI,[17],> 100 µM
same,GI50,[18],> 100 µM
same,TGI,[18],> 100 µM
same,GI50,[19],> 100 µM
same,TGI,[19],> 100 µM
same,GI50,[20],> 100 µM
same,TGI,[20],> 100 µM
same,GI50,[21],> 100 µM
same,TGI,[21],> 100 µM
same,GI50,[22],> 100 µM
same,TGI,[22],> 100 µM
same,GI50,[23],> 100 µM
same,TGI,[23],> 100 µM
same,GI50,[24],> 100 µM
same,TGI,[24],> 100 µM
same,GI50,[25],> 100 µM
same,TGI,[25],> 100 µM
same,GI50,[26],> 100 µM
same,TGI,[26],> 100 µM
same,GI50,[27],> 100 µM
same,TGI,[27],> 100 µM
same,GI50,[28],> 100 µM
same,TGI,[28],> 100 µM
same,GI50,[29],> 100 µM
same,TGI,[29],> 100 µM
same,GI50,[30],> 100 µM
same,TGI,[30],> 100 µM
same,GI50,[31],> 100 µM
same,TGI,[31],> 100 µM
same,GI50,[32],> 100 µM
same,TGI,[32],> 100 µM
same,GI50,[33],> 100 µM
same,TGI,[33],> 100 µM
same,GI50,[34],> 100 µM
same,TGI,[34],> 100 µM
same,GI50,[35],> 100 µM
same,TGI,[35],> 100 µM
same,GI50,[36],> 100 µM
same,TGI,[36],> 100 µM
same,GI50,[37],> 100 µM
same,TGI,[37],> 100 µM
same,GI50,[38],> 100 µM
same,TGI,[38],> 100 µM
same,GI50,[39],> 100 µM
same,TGI,[39],> 100 µM
same,GI50,[40],> 100 µM
same,TGI,[40],> 100 µM
same,GI50,[41],> 100 µM
same,TGI,[41],> 100 µM
same,GI50,[42],> 100 µM
same,TGI,[42],> 100 µM
same,GI50,[43],> 100 µM
same,TGI,[43],> 100 µM
same,GI50,[44],> 100 µM
same,TGI,[44],> 100 µM
same,GI50,[45],> 100 µM
same,TGI,[45],> 100 µM
same,GI50,[46],> 100 µM
same,TGI,[46],> 100 µM
same,GI50,[47],> 100 µM
same,TGI,[47],> 100 µM
same,GI50,[48],> 100 µM
same,TGI,[48],> 100 µM
same,GI50,[49],> 100 µM
same,TGI,[49],> 100 µM
same,GI50,[50],> 100 µM
same,TGI,[50],> 100 µM
same,GI50,[51],> 100 µM
same,TGI,[51],> 100 µM
same,GI50,[52],> 100 µM
same,TGI,[52],> 100 µM
same,GI50,[53],> 100 µM
same,TGI,[53],> 100 µM
same,GI50,[54],> 100 µM
same,TGI,[54],> 100 µM
same,GI50,[55],> 100 µM
same,TGI,[55],> 100 µM
same,GI50,[56],> 100 µM
same,TGI,[56],> 100 µM
same,GI50,[57],> 100 µM
same,TGI,[57],> 100 µM
same,GI50,[58],> 100 µM
same,TGI,[58],> 100 µM
same,GI50,[59],> 100 µM
same,TGI,[59],> 100 µM

# Reference: PubChem BioAssay (NCI)
